How the values were obtained:
Assay type in all cases: binding, mice
[1] = test system: taxol polyclonal antibodies; experiment: Indirect competitive microtiter plate immunoassay (ELISA), polyclonal antibodies to taxol (pool of antisera); conditions: for Cross-reactivity relative to taxol: polyclonal antibody pool
Experimental: (§1) The assay was performed by incubating 50 μL of the analytes to be measured with 50 μL of antibody (produced in example 4) diluted to a titer determined in example 8a. […] Following this incubation the wells of the plate were washed three times with 0.02 M TRIS, 0.9% NaCl, 0.5% Tween-80 and 0.001% Thimerosal, pH 7.8 to remove any material that was not bound. […] To develop a measurable color in the wells, washing was followed by the addition of 100 μL of TMB (TMB Liquid Substrate, Sigma), a substrate for HRP, to develop color in a 10 minute incubation with shaking at room temperature. Following the incubation for color development, 50 μL of stop solution (1.5% sodium fluoride in di H2O) was added to each well to stop the color development and after 10 seconds of shaking the absorbance was determined at 650 nm (Molecular Devices Plate Reader). The amount of antibody in a well was proportional to the absorbance measured and inversely proportional to the amount of taxol in the sample. The absorbance of the color in the wells containing analyte is compared to that with no analyte and a standard curve is generated. […] The cross-reactivity with 6-α-hydroxypaclitaxel was less than 60%. […]
(§2) The assay was performed by incubating 50 μL of the analytes to be measured with 50 μL of antibody (produced in example 4) diluted to a titer determined in example 8a. […] Following this incubation the wells of the plate were washed three times with 0.02 M TRIS, 0.9% NaCl, 0.5% Tween-80 and 0.001% Thimerosal, pH 7.8 to remove any material that was not bound. […] This secondary antibody was capable of binding specifically with murine immunoglobulins producing a colored product when incubated with a substrate. […] To develop a measurable color in the wells, washing was followed by the addition of 100 μL of TMB (TMB Liquid Substrate, Sigma), a substrate for HRP, to develop color in a 10 minute incubation with shaking at room temperature. Following the incubation for color development, 50 μL of stop solution (1.5% sodium fluoride in di H2O) was added to each well to stop the color development and after 10 seconds of shaking the absorbance was determined at 650 nm (Molecular Devices Plate Reader). The amount of antibody in a well was proportional to the absorbance measured and inversely proportional to the amount of taxol in the sample. The absorbance of the color in the wells containing analyte is compared to that with no analyte and a standard curve is generated. […]

[2] = test system: Monoclonal Ab #1 (monoclonal antibody to taxol); experiment: Indirect competitive microtiter plate immunoassay (ELISA), Monoclonal Ab #1
Experimental: as §1, §2

[3] = test system: Monoclonal Ab #2 (monoclonal antibody to taxol); experiment: Indirect competitive microtiter plate immunoassay (ELISA), Monoclonal Ab #2
Experimental: as §1, §2

[4] = microtiter plate sensitized with Taxol Derivative 5 (example 9a)
[5] = microtiter plate sensitized with Taxol Derivative 8 (example 9b)
[6] = plate sensitized with Taxol Derivative 5
[7] = plate sensitized with Taxol Derivative 8

| SMILES | Cross-reactivity relative to taxol [1, 4] | Cross-reactivity relative to taxol [1, 5] | Cross-reactivity relative to taxol [2, 6] | Cross-reactivity relative to taxol [2, 7] | Cross-reactivity relative to taxol [3, 6] | Cross-reactivity relative to taxol [3, 7] | IC50 ([1]; antisera of the four individual mice combined in the pool) |
| --- | --- | --- | --- | --- | --- | --- | --- |
| CC(=O)O[C@H]1C(=O)[C@@]2(C)[C@H]([C@H](OC(=O)c3ccccc3)[C@]3(O)C[C@H](OC(=O)[C@H](O)[C@@H](NC(=O)c4ccccc4)c4ccccc4)C(C)=C1C3(C)C)[C@]1(OC(C)=O)CO[C@@H]1[C@@H](O)[C@@H]2O [6-α-Hydroxypaclitaxel, 6-α-hydroxypaclitaxel] | <58% | 1.60% | 5.1% | 6.5% | ≦4.6% | 2.9% | – |
| CC(=O)O[C@H]1C(=O)[C@@]2(C)[C@H]([C@H](OC(=O)c3ccccc3)[C@]3(O)C[C@H](OC(=O)[C@H](O)[C@@H](NC(=O)c4ccccc4)c4ccc(O)cc4)C(C)=C1C3(C)C)[C@]1(OC(C)=O)CO[C@@H]1C[C@@H]2O [3′-p-Hydroxypaclitaxel, 3′-p-hydroxypaclitaxel] | ≦10% | 0.57% | 5.9% | 8.1% | ≦2.3% | 1.5% | – |
| CC(=O)O[C@H]1C(=O)[C@@]2(C)[C@H]([C@H](OC(=O)c3ccccc3)[C@]3(O)C[C@H](O)C(C)=C1C3(C)C)[C@]1(OC(C)=O)CO[C@@H]1C[C@@H]2O [Baccatin III] | 0.10% | 0.10% | 0.13% | 0.17% | ≦0.19% | 0.13% | – |
| CC(=O)O[C@H]1C(=O)[C@@]2(C)[C@H]([C@H](OC(=O)c3ccccc3)[C@]3(O)C[C@H](OC(=O)[C@H](O)[C@@H](NC(=O)c4ccccc4)c4ccccc4)C(C)=C1C3(C)C)[C@]1(OC(C)=O)CO[C@@H]1C[C@@H]2O [Taxol (Paclitaxel), Taxol] | – | – | – | – | – | – | < 0.02 µg/mL |
| CC(=O)O[C@@]12CO[C@@H]1C[C@H](O)[C@@]1(C)C(=O)[C@H](O)C3=C(C)[C@@H](OC(=O)[C@H](O)[C@@H](NC(=O)OC(C)(C)C)c4ccccc4)C[C@@](O)([C@@H](OC(=O)c4ccccc4)[C@H]21)C3(C)C [Docetaxel] | ≦5% | 0.16% | 76% | 77% | 101% | 85% | – |

— patent US7175993B2 (Saladax Biomedical, Inc., priority 2004, dated 2007)
